Data reported in patent US20170190705A1, “Compositions and Methods for Inhibiting BMP” (THE BRIGHAM AND WOMAN'S HOSPITAL, INC., priority 2014, published 2017).

Experiments:
Type in all cases: biochemical
PRKD3 = target: T1, PRKD3 (Homo sapiens, UniProt O94806); experiment: Kinome profiling PRKD3; details: read-out: Inhibitory activity PRKD3; for inhibition at 0.1 µM: 100 nM
T1 sequence (O94806 1-890): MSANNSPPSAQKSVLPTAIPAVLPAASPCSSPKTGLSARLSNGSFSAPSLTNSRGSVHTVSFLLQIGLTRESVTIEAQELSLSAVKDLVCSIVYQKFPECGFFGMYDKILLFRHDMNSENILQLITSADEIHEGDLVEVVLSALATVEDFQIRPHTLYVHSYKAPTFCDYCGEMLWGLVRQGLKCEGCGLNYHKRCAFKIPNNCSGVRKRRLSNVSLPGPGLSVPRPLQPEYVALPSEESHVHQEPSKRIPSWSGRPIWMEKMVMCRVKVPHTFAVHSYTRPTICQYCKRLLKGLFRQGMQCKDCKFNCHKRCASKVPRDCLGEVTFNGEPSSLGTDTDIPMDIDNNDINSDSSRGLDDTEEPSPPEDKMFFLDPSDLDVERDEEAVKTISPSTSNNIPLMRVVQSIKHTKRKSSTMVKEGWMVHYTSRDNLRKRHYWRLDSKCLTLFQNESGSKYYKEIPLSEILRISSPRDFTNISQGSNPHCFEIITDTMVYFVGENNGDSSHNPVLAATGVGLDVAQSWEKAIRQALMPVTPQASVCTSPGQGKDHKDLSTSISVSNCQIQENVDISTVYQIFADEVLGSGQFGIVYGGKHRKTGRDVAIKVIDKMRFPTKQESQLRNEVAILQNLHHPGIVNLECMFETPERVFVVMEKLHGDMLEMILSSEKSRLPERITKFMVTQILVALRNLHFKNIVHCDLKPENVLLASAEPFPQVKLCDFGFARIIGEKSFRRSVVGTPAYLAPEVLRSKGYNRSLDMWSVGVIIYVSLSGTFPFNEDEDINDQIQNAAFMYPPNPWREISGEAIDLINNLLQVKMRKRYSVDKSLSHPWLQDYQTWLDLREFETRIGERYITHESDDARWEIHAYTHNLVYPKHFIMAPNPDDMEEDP
Method: (§1) . The kinome-wide selectivity was determined following the methods previously reported by Mohedas et al., ACS Chem Biol 2013, 8, 1291-1302 and Sanvitale et al., PLoS One 2013, 8, e62721.

ALK = ALK (Homo sapiens, UniProt Q9UM73); experiment: Kinome profiling ALK; details: read-out: Inhibitory activity ALK; for inhibition at 0.1 µM: 100 nM
Sequence of ALK (Q9UM73 19-1620): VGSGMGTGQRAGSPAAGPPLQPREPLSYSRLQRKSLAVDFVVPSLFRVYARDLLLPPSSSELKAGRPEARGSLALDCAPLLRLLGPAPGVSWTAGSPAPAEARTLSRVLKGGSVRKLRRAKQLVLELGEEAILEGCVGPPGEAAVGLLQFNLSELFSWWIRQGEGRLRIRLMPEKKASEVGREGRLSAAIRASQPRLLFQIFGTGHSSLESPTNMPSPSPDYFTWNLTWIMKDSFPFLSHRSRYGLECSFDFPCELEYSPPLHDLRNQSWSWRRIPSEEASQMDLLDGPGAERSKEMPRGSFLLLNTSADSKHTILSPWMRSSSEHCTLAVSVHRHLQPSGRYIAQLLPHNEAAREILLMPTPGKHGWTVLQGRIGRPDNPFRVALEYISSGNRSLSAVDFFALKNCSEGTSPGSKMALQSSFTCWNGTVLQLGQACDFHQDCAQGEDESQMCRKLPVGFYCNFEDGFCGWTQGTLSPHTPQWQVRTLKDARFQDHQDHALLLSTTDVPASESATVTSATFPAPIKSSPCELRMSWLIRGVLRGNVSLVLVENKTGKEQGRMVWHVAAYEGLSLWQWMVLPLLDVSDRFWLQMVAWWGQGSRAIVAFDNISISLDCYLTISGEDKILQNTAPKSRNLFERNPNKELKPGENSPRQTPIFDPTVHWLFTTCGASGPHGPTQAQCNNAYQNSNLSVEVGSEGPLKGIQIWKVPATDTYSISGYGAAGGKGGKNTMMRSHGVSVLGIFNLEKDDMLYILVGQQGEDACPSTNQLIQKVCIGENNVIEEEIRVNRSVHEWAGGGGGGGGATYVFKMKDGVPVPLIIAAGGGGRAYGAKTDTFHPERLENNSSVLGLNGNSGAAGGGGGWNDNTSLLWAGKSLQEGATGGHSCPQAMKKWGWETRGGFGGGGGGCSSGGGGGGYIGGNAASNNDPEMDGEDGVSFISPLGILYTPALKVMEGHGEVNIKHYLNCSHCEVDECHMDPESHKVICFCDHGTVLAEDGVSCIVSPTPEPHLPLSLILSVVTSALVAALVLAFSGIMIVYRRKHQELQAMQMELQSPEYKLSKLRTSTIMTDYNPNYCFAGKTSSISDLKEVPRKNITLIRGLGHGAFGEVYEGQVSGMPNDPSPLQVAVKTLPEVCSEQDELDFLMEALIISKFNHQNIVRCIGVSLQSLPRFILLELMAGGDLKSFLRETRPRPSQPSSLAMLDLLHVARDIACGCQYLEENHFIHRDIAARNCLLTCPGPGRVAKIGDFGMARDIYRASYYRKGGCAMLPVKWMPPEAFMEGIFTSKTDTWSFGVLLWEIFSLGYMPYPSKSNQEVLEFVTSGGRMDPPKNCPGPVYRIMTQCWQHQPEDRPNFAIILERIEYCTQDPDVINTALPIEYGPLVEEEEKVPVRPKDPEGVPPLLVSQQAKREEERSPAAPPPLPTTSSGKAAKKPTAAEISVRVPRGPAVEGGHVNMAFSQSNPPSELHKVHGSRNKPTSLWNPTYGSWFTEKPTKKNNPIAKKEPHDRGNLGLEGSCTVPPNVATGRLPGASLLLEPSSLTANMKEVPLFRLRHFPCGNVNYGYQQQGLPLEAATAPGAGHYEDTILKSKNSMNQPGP
Method: as §1

CHEK2 = CHEK2 (Homo sapiens, UniProt O96017); experiment: Kinome profiling CHEK2; details: read-out: Inhibitory activity CHEK2; for inhibition at 0.1 µM: 100 nM
Sequence of CHEK2 (O96017 whole entry): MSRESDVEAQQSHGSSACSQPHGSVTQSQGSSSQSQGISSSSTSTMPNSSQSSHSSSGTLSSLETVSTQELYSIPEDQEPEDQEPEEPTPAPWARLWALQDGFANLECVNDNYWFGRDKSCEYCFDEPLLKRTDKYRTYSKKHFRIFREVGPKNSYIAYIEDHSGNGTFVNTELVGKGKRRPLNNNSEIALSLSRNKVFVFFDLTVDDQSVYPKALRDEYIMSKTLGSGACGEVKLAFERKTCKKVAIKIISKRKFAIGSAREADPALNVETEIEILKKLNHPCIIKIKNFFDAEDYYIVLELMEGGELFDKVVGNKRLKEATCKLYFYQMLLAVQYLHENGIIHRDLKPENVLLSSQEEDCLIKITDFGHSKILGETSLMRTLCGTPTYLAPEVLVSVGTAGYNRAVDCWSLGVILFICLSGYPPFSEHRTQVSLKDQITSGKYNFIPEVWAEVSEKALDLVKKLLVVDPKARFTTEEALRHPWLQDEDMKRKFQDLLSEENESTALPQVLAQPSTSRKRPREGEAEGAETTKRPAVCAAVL
Method: as §1

AMP-A1B1G1 = AMP-A1B1G1 (Homo sapiens, UniProt Q13131); experiment: Kinome profiling AMP-A1B1G1; details: read-out: Inhibitory activity AMP-A1B1G1; for inhibition at 0.1 µM: 100 nM
Sequence of AMP-A1B1G1 (Q13131 whole entry): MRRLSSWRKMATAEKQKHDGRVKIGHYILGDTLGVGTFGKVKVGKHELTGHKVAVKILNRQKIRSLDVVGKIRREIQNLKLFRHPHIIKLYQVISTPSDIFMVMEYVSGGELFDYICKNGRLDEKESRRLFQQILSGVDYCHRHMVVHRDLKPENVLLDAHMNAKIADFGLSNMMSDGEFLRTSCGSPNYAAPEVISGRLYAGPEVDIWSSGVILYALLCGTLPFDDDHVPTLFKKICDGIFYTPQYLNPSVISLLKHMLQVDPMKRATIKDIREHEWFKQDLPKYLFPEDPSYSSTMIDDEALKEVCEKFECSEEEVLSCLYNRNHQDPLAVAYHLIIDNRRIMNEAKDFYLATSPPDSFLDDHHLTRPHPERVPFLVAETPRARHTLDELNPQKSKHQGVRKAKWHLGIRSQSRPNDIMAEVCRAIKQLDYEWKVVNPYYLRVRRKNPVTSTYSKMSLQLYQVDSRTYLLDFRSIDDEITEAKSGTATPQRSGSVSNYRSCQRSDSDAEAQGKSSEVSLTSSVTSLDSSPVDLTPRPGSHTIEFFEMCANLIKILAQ
Sequence of AMP-A1B1G1 (Q9Y478 whole entry partner): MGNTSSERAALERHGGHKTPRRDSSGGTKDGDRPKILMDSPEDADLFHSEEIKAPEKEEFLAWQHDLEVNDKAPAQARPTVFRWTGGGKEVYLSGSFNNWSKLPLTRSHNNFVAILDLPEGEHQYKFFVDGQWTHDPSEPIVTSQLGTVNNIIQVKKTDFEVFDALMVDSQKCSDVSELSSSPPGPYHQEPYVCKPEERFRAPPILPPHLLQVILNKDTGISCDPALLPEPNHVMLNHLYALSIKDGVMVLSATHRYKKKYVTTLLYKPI
Sequence of AMP-A1B1G1 (P54619 whole entry partner): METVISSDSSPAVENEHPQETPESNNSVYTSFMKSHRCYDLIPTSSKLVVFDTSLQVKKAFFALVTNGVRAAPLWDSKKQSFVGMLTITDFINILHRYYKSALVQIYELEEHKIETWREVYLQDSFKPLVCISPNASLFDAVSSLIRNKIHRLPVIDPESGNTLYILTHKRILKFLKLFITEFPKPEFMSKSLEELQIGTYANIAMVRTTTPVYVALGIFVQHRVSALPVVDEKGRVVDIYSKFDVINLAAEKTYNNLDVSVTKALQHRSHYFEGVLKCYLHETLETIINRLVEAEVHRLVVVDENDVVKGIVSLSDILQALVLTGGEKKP
Method: as §1

PAK6 = PAK6 (Homo sapiens, UniProt Q9NQU5); experiment: Kinome profiling PAK6; details: read-out: Inhibitory activity PAK6; for inhibition at 0.1 µM: 100 nM
Sequence of PAK6 (Q9NQU5 whole entry): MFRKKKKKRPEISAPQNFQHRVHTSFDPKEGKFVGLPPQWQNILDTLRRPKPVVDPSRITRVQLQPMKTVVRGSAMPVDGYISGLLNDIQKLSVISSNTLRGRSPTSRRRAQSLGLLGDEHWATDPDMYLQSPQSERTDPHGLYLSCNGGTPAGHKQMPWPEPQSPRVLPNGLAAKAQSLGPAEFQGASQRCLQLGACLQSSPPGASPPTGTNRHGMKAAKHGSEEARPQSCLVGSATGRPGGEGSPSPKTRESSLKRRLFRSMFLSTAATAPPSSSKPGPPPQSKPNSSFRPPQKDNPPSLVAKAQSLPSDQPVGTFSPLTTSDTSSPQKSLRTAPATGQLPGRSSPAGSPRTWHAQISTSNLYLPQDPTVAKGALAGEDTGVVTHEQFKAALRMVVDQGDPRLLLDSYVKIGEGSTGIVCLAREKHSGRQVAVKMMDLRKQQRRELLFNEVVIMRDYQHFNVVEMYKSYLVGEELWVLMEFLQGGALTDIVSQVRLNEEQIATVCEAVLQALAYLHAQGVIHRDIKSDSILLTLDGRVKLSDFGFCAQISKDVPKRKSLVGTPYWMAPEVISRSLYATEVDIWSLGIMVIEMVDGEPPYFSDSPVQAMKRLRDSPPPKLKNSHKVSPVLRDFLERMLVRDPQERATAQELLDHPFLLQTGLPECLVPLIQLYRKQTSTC
Method: as §1

PKC-1 = target: T2, PKC-1 (Homo sapiens, UniProt P41743); experiment: Kinome profiling PKC-1; details: read-out: Inhibitory activity PKC-1; for inhibition at 0.1 µM: 100 nM
T2 sequence (P41743 2-596 limits assumed): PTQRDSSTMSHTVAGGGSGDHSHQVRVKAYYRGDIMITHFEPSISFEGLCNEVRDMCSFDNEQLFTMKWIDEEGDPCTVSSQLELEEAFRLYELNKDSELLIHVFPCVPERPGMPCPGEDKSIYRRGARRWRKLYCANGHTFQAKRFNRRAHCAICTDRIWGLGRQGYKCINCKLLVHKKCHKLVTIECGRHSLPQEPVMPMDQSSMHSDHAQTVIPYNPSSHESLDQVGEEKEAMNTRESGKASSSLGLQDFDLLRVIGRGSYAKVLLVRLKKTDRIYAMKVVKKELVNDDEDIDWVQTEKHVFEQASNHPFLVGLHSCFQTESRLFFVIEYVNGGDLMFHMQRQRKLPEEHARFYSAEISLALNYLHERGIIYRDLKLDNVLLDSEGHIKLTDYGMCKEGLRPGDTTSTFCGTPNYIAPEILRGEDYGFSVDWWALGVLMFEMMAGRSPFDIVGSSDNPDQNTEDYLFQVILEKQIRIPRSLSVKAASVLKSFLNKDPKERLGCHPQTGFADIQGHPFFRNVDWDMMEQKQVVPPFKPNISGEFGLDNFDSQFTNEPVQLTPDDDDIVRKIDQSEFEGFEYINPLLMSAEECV
Method: as §1

P70S6KB1 = P70S6KB1 (Homo sapiens, UniProt P23443); experiment: Kinome profiling P70S6KB1; details: read-out: Inhibitory activity P70S6KB1; for inhibition at 0.1 µM: 100 nM
Method: as §1

DYRK2 = target: T3, DYRK2 (Homo sapiens, UniProt Q92630); experiment: Kinome profiling DYRK2; details: read-out: Inhibitory activity DYRK2; for inhibition at 0.1 µM: 100 nM
T3 sequence (Q92630 1-601): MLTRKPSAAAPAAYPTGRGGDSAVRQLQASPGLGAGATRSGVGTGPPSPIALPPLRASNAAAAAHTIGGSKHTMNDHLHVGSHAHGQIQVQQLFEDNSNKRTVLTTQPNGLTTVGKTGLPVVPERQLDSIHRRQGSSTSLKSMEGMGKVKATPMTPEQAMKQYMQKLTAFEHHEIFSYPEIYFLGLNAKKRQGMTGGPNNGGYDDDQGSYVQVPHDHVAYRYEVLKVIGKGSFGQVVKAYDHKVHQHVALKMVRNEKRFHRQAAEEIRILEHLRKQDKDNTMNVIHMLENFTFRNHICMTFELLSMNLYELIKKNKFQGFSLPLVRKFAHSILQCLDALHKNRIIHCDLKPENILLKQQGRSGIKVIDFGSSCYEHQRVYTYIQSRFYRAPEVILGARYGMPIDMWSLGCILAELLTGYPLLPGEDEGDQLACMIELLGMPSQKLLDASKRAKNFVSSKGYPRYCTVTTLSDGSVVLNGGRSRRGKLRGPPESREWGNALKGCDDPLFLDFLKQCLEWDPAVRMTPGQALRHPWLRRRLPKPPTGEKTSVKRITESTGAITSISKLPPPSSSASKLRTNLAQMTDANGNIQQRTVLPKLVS
Method: as §1

SRPK1 = SRPK1 (Homo sapiens, UniProt Q96SB4); experiment: Kinome profiling SRPK1; details: read-out: Inhibitory activity SRPK1; for inhibition at 0.1 µM: 100 nM
Sequence of SRPK1 (Q96SB4 whole entry): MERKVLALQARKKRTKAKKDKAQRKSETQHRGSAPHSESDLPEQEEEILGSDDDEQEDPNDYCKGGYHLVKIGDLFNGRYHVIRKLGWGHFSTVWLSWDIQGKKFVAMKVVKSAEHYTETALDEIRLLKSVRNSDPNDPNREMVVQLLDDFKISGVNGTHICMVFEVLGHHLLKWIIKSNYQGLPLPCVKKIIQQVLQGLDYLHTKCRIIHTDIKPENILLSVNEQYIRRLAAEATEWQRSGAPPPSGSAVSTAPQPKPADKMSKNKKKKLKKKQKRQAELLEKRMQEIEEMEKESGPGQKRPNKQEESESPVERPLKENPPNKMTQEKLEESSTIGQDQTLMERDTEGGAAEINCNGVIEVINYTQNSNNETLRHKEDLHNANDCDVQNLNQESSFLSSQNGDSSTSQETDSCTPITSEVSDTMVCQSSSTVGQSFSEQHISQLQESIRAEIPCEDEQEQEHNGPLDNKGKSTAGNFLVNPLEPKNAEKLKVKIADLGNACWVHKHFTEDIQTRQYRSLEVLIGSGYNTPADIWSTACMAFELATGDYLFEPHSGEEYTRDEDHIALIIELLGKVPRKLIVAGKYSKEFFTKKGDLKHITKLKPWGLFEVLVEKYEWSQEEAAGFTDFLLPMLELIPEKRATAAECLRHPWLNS
Method: as §1

SMILES	inhibition at 0.1 µM (PRKD3) [%]	inhibition at 1 µM (PRKD3) [%]	inhibition at 0.1 µM (ALK) [%]	inhibition at 1 µM (ALK) [%]	inhibition at 0.1 µM (CHEK2) [%]	inhibition at 1 µM (CHEK2) [%]	inhibition at 0.1 µM (AMP-A1B1G1) [%]	inhibition at 1 µM (AMP-A1B1G1) [%]	inhibition at 0.1 µM (PAK6) [%]	inhibition at 1 µM (PAK6) [%]	inhibition at 0.1 µM (PKC-1) [%]	inhibition at 1 µM (PKC-1) [%]	inhibition at 0.1 µM (P70S6KB1) [%]	inhibition at 1 µM (P70S6KB1) [%]	inhibition at 0.1 µM (DYRK2) [%]	inhibition at 1 µM (DYRK2) [%]	inhibition at 0.1 µM (SRPK1) [%]	inhibition at 1 µM (SRPK1) [%]
COc1cc(-c2cc(-c3ccc(N4CCNCC4)cc3)cnc2C)cc(OC)c1OC [Compound 10, 1-(4-(6-methyl-5-(3,4,5-trimethoxyphenyl)pyridin-3-yl)phenyl)piperazine]	2	21	2	7	1	8	5	1	1	5	12	3	1	1	2	1	2	2
COc1cc(-c2cc(-c3ccc(N4CCNCC4)cc3)cnc2N)cc(OC)c1OC [Compound 15, 5-(4-(piperazin-1-yl)phenyl)-3-(3,4,5-trimethoxyphenyl)pyridin-2-amine]	7	38	6	36	2	7	0	5	5	3	1	1	0	0	2	0	1	-1
